Our source for the activation (HDL uptake increase) and AC40 values is PubChem BioAssay AID602191 (Broad Institute, 2012).

Active and inactive are the calls of the source.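 The calls were made as follows: active = fitted curve reaches 40% activation at a concentration no higher than the top valid tested dose; inconclusive = flat fit between 30% and 70% activation, or poor fit; inactive = uptake decrease, flat fit within 30% of zero, the rest.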 Residues, ends and D or L forms follow the SMILES beside them.

For the first assay, the target named is Scavenger receptor class B member 1 (Mus musculus) (UniProt Q61009). The experiment in a line: enhancers of DiI-HDL lipid transfer via SR-BI – cell-based, ldlA[mSR-BI] CHO, DiI fluorescence, cherry-pick, dose response (AID 602191).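 Also: cell fluorescence from internalized DiI-labeled HDL after washing.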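 As to AC40: potency of activators raising HDL uptake.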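 As to activation (HDL uptake increase): 0% = median of DMSO wells and 100% = twice the DMSO signal.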 The following applies: ldlA[mSR-BI] CHO cells, 3 h, at 35 µM (top of the series).
Chain of Scavenger receptor class B member 1 (Mus musculus) (Q61009 whole entry, looked up): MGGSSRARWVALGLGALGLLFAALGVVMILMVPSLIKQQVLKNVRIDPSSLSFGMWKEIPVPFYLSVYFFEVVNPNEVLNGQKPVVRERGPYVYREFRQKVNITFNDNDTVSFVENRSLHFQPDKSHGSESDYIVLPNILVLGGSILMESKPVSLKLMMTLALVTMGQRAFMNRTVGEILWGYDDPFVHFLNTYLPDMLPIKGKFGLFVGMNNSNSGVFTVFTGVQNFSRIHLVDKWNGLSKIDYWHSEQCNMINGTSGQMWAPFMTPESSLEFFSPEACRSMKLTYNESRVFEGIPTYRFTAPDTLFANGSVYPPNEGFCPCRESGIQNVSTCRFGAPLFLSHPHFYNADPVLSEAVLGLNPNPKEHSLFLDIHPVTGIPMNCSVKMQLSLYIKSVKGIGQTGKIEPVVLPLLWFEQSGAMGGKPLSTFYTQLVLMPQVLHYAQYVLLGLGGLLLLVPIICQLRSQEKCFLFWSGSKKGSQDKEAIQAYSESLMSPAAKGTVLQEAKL
On to `Cc1ccc(C(=O)N/C(=C/c2ccccc2)C(=O)NC(Cc2ccccc2)C(=O)O)cc1` (stereo unspecified), for which the activation (HDL uptake increase) was 8.63% (inactive).

As for `CC1CCN(S(=O)(=O)c2ccc3c(c2)c(=O)c(C(=O)N2CCCCC2)cn3C)CC1`, the activation (HDL uptake increase) is -8.34% (inactive).

As for `CCCCc1nc2cc(C(=O)NCc3ccccn3)ccc2o1`, the activation (HDL uptake increase) was -3.25% (inactive).

`Cc1cc(C)nc(SCC(=O)OC(C)C(=O)Nc2ccccc2)n1` (stereo unspecified): the activation (HDL uptake increase) is -8.43% (inactive).

With `CCCCn1c(=N)n(CCOc2ccc(C)cc2)c2ccccc21`, the activation (HDL uptake increase) is -6.96% (inactive).

In the case of `Cc1ccc(N(CC(=O)N2CC(=O)Nc3ccccc32)S(=O)(=O)c2ccc3c(c2)OCCO3)cc1`, the activation (HDL uptake increase) was -11.9% (inactive).

As for `CCOc1ccc(S(=O)(=O)N2CCN=C2c2ccccc2)c(C)c1C`, the activation (HDL uptake increase) was -9.83% (inactive).

Consider `O=C(O)CCc1nnc(SCC(=O)Nc2ccc(Br)cc2)[nH]c1=O`, for which the activation (HDL uptake increase) was -2.46% (inactive).

Consider `O=C(c1ccc(Cl)cc1)C1CCCN(Cc2ccc3ncccc3c2)C1` (stereo unspecified), for which the activation (HDL uptake increase) was 12.3% (inactive).

Take `O=S1(=O)CCO[C@H]2Cc3ccccc3[C@H]2N1Cc1ccccc1`: the activation (HDL uptake increase) is -12.6% (inactive).

Regarding `CC(Sc1ccc(S(=O)(=O)N(C)C)cn1)C(=O)NC1CCCC1` (stereo unspecified), the activation (HDL uptake increase) was -1.21% (inactive).

For the molecule `CCCCCC(=O)Nc1cc(S(=O)(=O)N2CCOCC2)ccc1N1CCCCC1`, the activation (HDL uptake increase) was -0.494% (inactive).

In the case of `COc1ccc(C(=O)Nc2nnc(SCC(=O)Nc3ccc(NC(C)=O)cc3)s2)c(OC)c1`, the activation (HDL uptake increase) is -6.9% (inactive).

On to `O=C(C[C@H]1C[C@H](C(=O)N2CCOCC2)[C@@]2(CCC3CCCC3)c3[nH]c4ccc(Cl)cc4c3CCN2C1=O)NCc1ccco1`, for which the activation (HDL uptake increase) is -3.23% (inactive).

`Cc1ccc(NC(=O)c2nc[nH]c2C(=O)NCCN(CCNC(=O)c2[nH]cnc2C(=O)Nc2ccc(C)cc2)CCNC(=O)c2[nH]cnc2C(=O)Nc2ccc(C)cc2)cc1`: the activation (HDL uptake increase) was 8.14% (inactive).

Turning to `C[C@H](CO)N1C[C@H](C)[C@H](CN(C)Cc2ccc(-c3ccccc3)cc2)Oc2ccc(NS(=O)(=O)c3ccccc3)cc2CC1=O`, the activation (HDL uptake increase) was 44.6% (inactive).

`COc1ccc(CCN2CC(C(=O)NCc3cnn(C(C)C)c3)CCC2=O)cc1` (stereo unspecified): the activation (HDL uptake increase) is -1.83% (inactive).

For the molecule `O=C(COC(=O)c1ccc[nH]c1=O)Nc1cc(S(=O)(=O)N2CCCCCC2)ccc1Cl`, the activation (HDL uptake increase) was -9.61% (inactive).

For the molecule `CSCCC(NC(=O)c1ccco1)C(=O)NCc1ccc(F)cc1` (stereo unspecified), the activation (HDL uptake increase) is -8.99% (inactive).

With `O=C(NNC(=O)C1CC(c2cccnc2)=NO1)Nc1cccc(F)c1` (stereo unspecified), the activation (HDL uptake increase) was -5.33% (inactive).

For `COc1ccccc1CN1C(=O)CCC1(C)C(=O)NCc1cccnc1` (stereo unspecified), the activation (HDL uptake increase) was -8.82% (inactive).

For `O=C1NC[C@H](Cc2ccccc2)N(C[C@H]2CCCN2C[C@H](Cc2ccccc2)N2C[C@H](Cc3ccccc3)N(CC3CCCCC3)C(=O)C2=O)C1=O`, the activation (HDL uptake increase) is 11.2% (inactive).

Regarding `CC(C)COC(=O)Cc1c(O)c2ccccc2[nH]c1=O`, the activation (HDL uptake increase) is -2.53% (inactive).

For the molecule `COc1ccc(C(=O)N2CCNC(=O)C2)cc1S(=O)(=O)Nc1ccc(Br)cc1`, the activation (HDL uptake increase) is -3.81% (inactive).

Regarding `CN(C(=O)c1ccccc1Cl)c1ccccc1C(=O)NCc1ccccc1`, the activation (HDL uptake increase) is -10.9% (inactive).

On to `CCc1nc(SCC(=O)Nc2ccc([N+](=O)[O-])cc2)n[nH]1`, for which the activation (HDL uptake increase) is -10.4% (inactive).

For the molecule `COc1ccc(C(=O)NC(=O)CSc2nc3nc(C)cc(C)n3n2)cc1`, the activation (HDL uptake increase) was -8.5% (inactive).

Turning to `Cc1ccc(S(=O)(=O)NC(=O)Nc2nnc(C3CC3)s2)cc1`, the activation (HDL uptake increase) was 9.12% (inactive).

Regarding `COc1cccc(N2CCN(c3ccc4nnc(CCC(=O)Nc5cc(C)ccn5)n4n3)CC2)c1`, the activation (HDL uptake increase) was -11.4% (inactive).

Turning to `COC1CCCN(Cc2c(C(=O)N3CCN(C4CCCCC4)CC3)nc3ccccn23)C1` (stereo unspecified), the activation (HDL uptake increase) is -7.41% (inactive).

Turning to `COc1ccccc1C(=O)NC(=O)COC(=O)c1cccc(NC(C)=O)c1`, the activation (HDL uptake increase) is -5.38% (inactive).

Regarding `Cc1ccc(S(=O)(=O)CCC(=O)OCC(=O)Nc2cc(S(=O)(=O)N3CCOCC3)ccc2Cl)cc1`, the activation (HDL uptake increase) is -6.57% (inactive).

In the case of `CCCC(=O)OCC(=O)Nc1ccc(OC(F)F)cc1`, the activation (HDL uptake increase) is 1.74% (inactive).

On to `CN(CC(=O)Nc1cccc(F)c1)C(=O)C1CC(=O)N(CCc2ccccc2)C1` (stereo unspecified), for which the activation (HDL uptake increase) was -13.2% (inactive).

As to `COCCCNC(=O)C1CCC(CNS(=O)(=O)c2ccc3c(c2)N(C(C)=O)CCO3)CC1` (stereo unspecified), the activation (HDL uptake increase) is 7.18% (inactive).

As for `NC(=O)C1CCN(C(=O)C2CC(=O)N(Cc3ccccc3)C2)CC1` (stereo unspecified), the activation (HDL uptake increase) is -2.16% (inactive).

Turning to `O=C(NCc1cnn(-c2ccccc2)c1)C1CCC(=O)N(C2CC2)C1` (stereo unspecified), the activation (HDL uptake increase) is -6.78% (inactive).

For the molecule `COc1ccc(C(C(=O)NC2CCCCC2)N(C(=O)CCl)c2ccccc2Cl)cc1` (stereo unspecified), the activation (HDL uptake increase) is -7.36% (inactive).

As to `CC(C)C(C)(C#N)NC(=O)CSc1nnc(C(F)(F)F)n1C` (stereo unspecified), the activation (HDL uptake increase) was -5.69% (inactive).

Take `COCCNC(=O)c1onc(CSc2ccc(F)c(F)c2)c1C(=O)O`: the activation (HDL uptake increase) is -4.96% (inactive).

`COc1cccc(OCc2cc(C(=O)NC3CCOCC3)no2)c1`: the activation (HDL uptake increase) is -16.2% (inactive).

Regarding `O=C(O)CN(Cc1ccco1)S(=O)(=O)c1ccc(F)cc1`, the activation (HDL uptake increase) is -1.5% (inactive).

Take `Cn1cc(CN2CCC(O)CC2)c(-c2ccc(Oc3ccccc3)cc2)n1`: the activation (HDL uptake increase) is -5.7% (inactive).

Turning to `COc1ccc(C(=O)NNS(=O)(=O)c2ccccc2)cc1OC`, the activation (HDL uptake increase) is -10.5% (inactive).

On to `O=C(CCN1C(=O)c2ccccc2C1=O)C1=NN[C@@H]2C(=O)N(c3cccc(F)c3)C(=O)[C@H]12`, for which the activation (HDL uptake increase) is -9.51% (inactive).

For `O=C(CCCc1nc2ccccc2s1)NCc1ccccc1`, the activation (HDL uptake increase) is -3.71% (inactive).

With `Cc1ccc(C2/C(=C(\O)c3ccc4c(c3)OCCO4)C(=O)C(=O)N2Cc2cccnc2)cc1` (stereo unspecified), the activation (HDL uptake increase) was -7.31% (inactive).

For the molecule `CCc1ccc(C(=O)CN2C(=O)NC(C)(CCc3ccccc3)C2=O)cc1` (stereo unspecified), the activation (HDL uptake increase) is -8.25% (inactive).

In the case of `CCN1C(=O)C(CC(=O)NC2CCCCC2)N(CC)C1=O` (stereo unspecified), the activation (HDL uptake increase) is 7.58% (inactive).

Consider `COc1ccccc1C(=O)NNC(=S)NC(=O)c1sc2ccccc2c1Cl`, for which the activation (HDL uptake increase) is -16.5% (inactive).

Turning to `COC(=O)CNC(=O)COC(=O)c1cc(Cl)cc(Cl)c1N`, the activation (HDL uptake increase) is -8.63% (inactive).

Take `Cc1csc(SCC(=O)Nc2cc(C(N)=O)cc(C(N)=O)c2)n1`: the activation (HDL uptake increase) was -3.94% (inactive).

Regarding `Cn1c(=O)[nH]c(=O)c2c1nc(N1CCN(c3ccccc3)CC1)n2CCSc1ncccn1`, the activation (HDL uptake increase) was 2.78% (inactive).

Regarding `CCN1CCN(C(=O)CCc2nc3ccccc3c(=O)[nH]2)CC1`, the activation (HDL uptake increase) was 9.34% (inactive).

As to `CCc1cccc(N(C(=O)c2csnn2)C(C(=O)NC2CCCC2)c2cccnc2)c1` (stereo unspecified), the activation (HDL uptake increase) is 6.32% (inactive).

On to `O=C(Cn1c(=O)cnc2ccccc21)NNC(=O)c1ccc(Cl)cc1`, for which the activation (HDL uptake increase) was -5.85% (inactive).

Turning to `O=c1[nH]c(C2CCN(S(=O)(=O)c3ccc4c(c3)OCCO4)CC2)nc2c1nnn2Cc1ccc(F)cc1`, the activation (HDL uptake increase) was -4.95% (inactive).

With `COc1ccc(NC(=O)N(C)C[C@H]2Oc3c(NC(=O)c4ccncc4)cccc3C(=O)N([C@H](C)CO)C[C@@H]2C)cc1`, the activation (HDL uptake increase) is -11.2% (inactive).

Consider `CCOC(=O)N1CCN(C(=O)c2nn(C)c3c2CSc2ccccc2-3)CC1`, for which the activation (HDL uptake increase) is -12.2% (inactive).

As for `CC(C)C[C@H]1CNC(=S)N1CC1CCCN1C[C@H](Cc1ccccc1)N1C[C@H](Cc2ccc(O)cc2)N(CC2CCCCC2)C1=S` (stereo partly specified), the activation (HDL uptake increase) was -0.934% (inactive).

As to `O=C(c1ccc(NS(=O)(=O)c2cccc([N+](=O)[O-])c2)cc1)N1CCN(C(=O)c2ccco2)CC1`, the activation (HDL uptake increase) was -14.9% (inactive).

For `O=C(COc1ccc([N+](=O)[O-])cc1)NCc1cccnc1`, the activation (HDL uptake increase) is -4.82% (inactive).

With `Cc1ccc(N2C(=O)C3C(C(=O)c4ccccc4)=NN(c4ccccc4)C3C2=O)cc1` (stereo unspecified), the activation (HDL uptake increase) was 0.966% (inactive).

Take `CCCCC/C=C\C[C@H](O)/C=C/c1cccc(C[C@H](O)CCCCO)n1`: the activation (HDL uptake increase) is -14% (inactive).

Consider `CC[C@H](C)[C@@H]1NC(=O)[C@H]([C@@H](C)CC)NC(=O)[C@@H](CC(C)C)NC(=O)[C@H](Cc2ccccc2)NC(=O)[C@H](Cc2ccccc2)NC(=O)[C@@H]2CCCN2C(=O)[C@@H]2CCCN2C(=O)[C@H](C(C)C)NC(=O)[C@H](CC(C)C)NC1=O` (HELM PEPTIDE1{F.F.[dL].I.I.L.V.P.P}$PEPTIDE1,PEPTIDE1,1:R1-9:R2$$$V2.0), for which the activation (HDL uptake increase) was 5.97% (inactive).

As to `Cc1ccc(OCCC(=O)OCC(=O)NNC(=O)c2ccccc2)cc1`, the activation (HDL uptake increase) is 8.09% (inactive).

Take `COC(=O)c1oc2ccc(Br)cc2c1NC(=O)CN1CCN(C)CC1`: the activation (HDL uptake increase) is 4.26% (inactive).

Still in this assay, the particulars now being: ldlA[mSR-BI] CHO cells, DiI-HDL uptake fluorescence, 3 h.
On to `O=C(CC1NC(=O)NC1=O)Nc1ccc(Cl)cc1` (stereo unspecified), for which the AC40 is > 35 µM (inactive).

With `CCN1CCN(c2ccc(S(=O)(=O)N3CCOCC3)cc2NC(=O)C2CCC(C(C)(C)C)CC2)CC1` (stereo unspecified), the AC40 was > 35 µM (inactive).

Take `CCOc1ccc(CN2CCNC(=O)C2CC(=O)NCC2CCOCC2)cc1` (stereo unspecified): the AC40 was > 35 µM (inactive).

Regarding `COCCNC(=O)c1onc(CSc2cccc(C)c2)c1C(=O)O`, the AC40 was > 35 µM (inactive).
